Our source for the IC50 and AC50 values is patent US20250154169A1, “COMPOUNDS AND METHODS FOR MODULATING SPLICING” (REMIX THERAPEUTICS INC., priority 2021, published 2025).

What all share (format): cell-based, human
One test concerns SMN2 mRNA. The test can be described thus: Splicing RT-qPCR gene panel, SMN2 canonical junction (CJ) mRNA. The note with it: Homo sapiens, Tables 4A/4B, read-out: SMN2 (IC50, decrease in CJ mRNA, gene panel). A digest of the protocol: (§1)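 Cells (A673 in DMEM/10% FBS, K562 in IMDM/10% FBS) got compound for 24 h, top dose 10 uM, 11 points, 3-fold steps, DMSO ≤0.25%. Lysates went to RT-qPCR for the canonical exon-exon junction; ΔΔCt against housekeeper and DMSO gave RQ, then percentage response.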

Test [1] concerns HTT mRNA. The test can be described thus: Splicing RT-qPCR assay, HTT canonical (CJ) and alternative (AJ) junction mRNA. The following applies: Homo sapiens, A673 or K562 cells, 24 hours compound treatment; for IC50: 24 h, read-out: HTT CJ (IC50, decrease in canonical junction mRNA); for AC50: read-out: HTT AJ (AC50, increase in alternative junction mRNA). An outline of the steps: (§2)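 Read-out is the abundance of canonical-junction versus new alternative-exon-junction mRNA, determined by real-time qPCR after cDNA synthesis and normalized to a housekeeping gene. It is measured in A673 or K562 cells exposed to compounds for 24 h, top dose 10 uM.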

The subject of another test is Target C mRNA. The test can be described thus: Splicing RT-qPCR gene panel, Target C canonical junction (CJ) mRNA. The following applies: Homo sapiens, Tables 4A/4B, read-out: Target C (IC50, decrease in CJ mRNA, gene panel). An outline of the steps:
as §1

A further test relates to MYB mRNA. In words: Splicing RT-qPCR assay, MYB canonical (CJ) and alternative (AJ) junction mRNA. The following applies: Homo sapiens; for AC50: read-out: MYB AJ (AC50, increase in alternative junction mRNA). An outline of the steps: as §2
For test [2], the system named is HTT mRNA. The test can be described thus: Splicing RT-qPCR gene panel, HTT canonical junction (CJ) mRNA. The following applies: Homo sapiens, Tables 4A/4B, read-out: HTT (IC50, decrease in CJ mRNA, gene panel). An outline of the steps:
as §1

[3] abbreviates: 24 h, A673 or K562 cells, 24 hours compound treatment, RT-qPCR.
Setting [4] is: 24 h, A673 or K562 cells, 24 hours compound treatment, RT-qPCR, read-out: MYB CJ (IC50, decrease in canonical junction mRNA).
Setting [5] is: Tables 4A/4B, canonical junction qPCR panel, read-out: MYB (IC50, decrease in CJ mRNA, gene panel).

Structures are written as SMILES. Like-named read-outs stand apart in the source and are kept apart here.

`CCn1cc2c(N3CCN(C)CC3)ccc(C(=O)Nc3cc(F)c4nc(C)cn4c3)c2n1` [Compound 378, 2-ethyl-N-{8-fluoro-2-methylimidazo[1,2-a]pyridin-6-yl}-4-(4-methylpiperazin-1-yl) indazole-7-carboxamide]: the IC50 is less than 100 nM with SMN2 mRNA; 1000 to 10000 nM in the test on HTT mRNA [1]; greater than 10000 nM in the test with Target C mRNA; 100 to 1000 nM in the test with MYB mRNA (setting [4]); less than 100 nM with MYB mRNA (setting [5]); 1000 to 10000 nM with HTT mRNA [2]. For the same molecule, the AC50 lay within 1000 to 10000 nM with HTT mRNA [1] and 100 to 1000 nM with MYB mRNA (setting [3]).
On to `CCn1cc2c(N3CCNC4(CC4)C3)ccc(C(=O)Nc3cc(F)c4nc(C)cn4c3)c2n1` [Compound 379, 4-{4,7-diazaspiro[2.5]octan-7-yl}-2-ethyl-N-{8-fluoro-2-methylimidazo[1,2-a]pyridin-6-yl}indazole-7-carboxamide], for which the IC50 in the test on SMN2 mRNA is less than 100 nM; in the test with HTT mRNA [1], 1000 to 10000 nM; in the test with Target C mRNA, 1000 to 10000 nM; in the test on MYB mRNA (setting [4]), 100 to 1000 nM; with MYB mRNA (setting [5]), 100 to 1000 nM; with HTT mRNA [2], 1000 to 10000 nM. Also, the AC50 in the test with HTT mRNA [1] was greater than 10000 nM; in the test with MYB mRNA (setting [3]), 1000 to 10000 nM.
For the molecule `CCNC1CCN(c2ccc(C(=O)Nc3cc(F)c4nc(C)cn4c3)c3nn(CC)cc23)CC1` [Compound 380, 2-ethyl-4-[4-(ethylamino)piperidin-1-yl]-N-{8-fluoro-2-methylimidazo[1,2-a]pyridin-6-yl}indazole-7-carboxamide], the IC50 with SMN2 mRNA was less than 100 nM; with HTT mRNA [1], 1000 to 10000 nM; in the test with Target C mRNA it was 1000 to 10000 nM; in the test on MYB mRNA (setting [4]), less than 100 nM; with MYB mRNA (setting [5]), less than 100 nM; in the test on HTT mRNA [2], 1000 to 10000 nM. The AC50 in the test with HTT mRNA [1] is 1000 to 10000 nM; with MYB mRNA (setting [3]), less than 100 nM.
For `Cc1cn2cc(NC(=O)c3ccc(N4CC[C@@H](N)C4)c4cn(C)nc34)cc(F)c2n1` [Compound 381, 4-[(3R)-3-aminopyrrolidin-1-yl]-N-{8-fluoro-2-methylimidazo[1,2-a]pyridin-6-yl}-2-methylindazole-7-carboxamide], the IC50 in the test with SMN2 mRNA was less than 100 nM; with HTT mRNA [1] it was greater than 10000 nM; with Target C mRNA, greater than 10000 nM; with MYB mRNA (setting [4]), less than 100 nM; in the test on MYB mRNA (setting [5]), less than 100 nM; with HTT mRNA [2], greater than 10000 nM. In addition, the results for the AC50 with HTT mRNA [1] and in the test on MYB mRNA (setting [3]) were greater than 10000 nM and less than 100 nM, respectively.
As for `Cc1cn2cc(NC(=O)c3ccc(N4CC[C@H](N)C4)c4cn(C)nc34)cc(F)c2n1` [Compound 382, 4-[(3S)-3-aminopyrrolidin-1-yl]-N-{8-fluoro-2-methylimidazo[1,2-a]pyridin-6-yl}-2-methylindazole-7-carboxamide], the IC50 with SMN2 mRNA is less than 100 nM; in the test on HTT mRNA [1] it was 1000 to 10000 nM; with Target C mRNA, greater than 10000 nM; in the test on MYB mRNA (setting [4]) it was less than 100 nM; in the test on MYB mRNA (setting [5]) it was less than 100 nM; with HTT mRNA [2] it was 1000 to 10000 nM. In addition, the AC50 in the test with HTT mRNA [1] was 1000 to 10000 nM; in the test with MYB mRNA (setting [3]), less than 100 nM.
As to `Cc1cn2cc(NC(=O)c3ccc(N4CC5(N)CC4C5)c4cn(C)nc34)cc(F)c2n1` [Compound 383, 4-{4-amino-2-azabicyclo[2.1.1]hexan-2-yl}-N-{8-fluoro-2-methylimidazo[1,2-a]pyridin-6-yl}-2-methylindazole-7-carboxamide], the IC50 is less than 100 nM in the test on SMN2 mRNA; greater than 10000 nM with HTT mRNA [1]; greater than 10000 nM with Target C mRNA; less than 100 nM in the test with MYB mRNA (setting [4]); less than 100 nM in the test on MYB mRNA (setting [5]); greater than 10000 nM in the test with HTT mRNA [2]. Besides, the AC50 is greater than 10000 nM in the test with HTT mRNA [1] and 100 to 1000 nM in the test with MYB mRNA (setting [3]).
Take `Cc1cn2cc(NC(=O)c3ccc(N4CCNCC4)c4cn(CC5(O)COC5)nc34)cc(F)c2n1` [Compound 384, N-{8-fluoro-2-methylimidazo[1,2-a]pyridin-6-yl}-2-[(3-hydroxyoxetan-3-yl)methyl]-4-(piperazin-1-yl) indazole-7-carboxamide]: the IC50 with SMN2 mRNA was 100 to 1000 nM; in the test with HTT mRNA [1] it was greater than 10000 nM; in the test with Target C mRNA, greater than 10000 nM; in the test with MYB mRNA (setting [4]) it was greater than 10000 nM; with MYB mRNA (setting [5]), greater than 10000 nM; in the test with HTT mRNA [2], greater than 10000 nM. In addition, the figures for the AC50 in the test with HTT mRNA [1] and in the test on MYB mRNA (setting [3]) were greater than 10000 nM and 1000 to 10000 nM, respectively.
Consider `COCCOc1nc2c(C(=O)Nc3cc(F)c4nc(C)cn4c3)ccc(N3CCNCC3)c2o1` [Compound 385, N-{8-fluoro-2-methylimidazo[1,2-a]pyridin-6-yl}-2-(2-methoxyethoxy)-7-(piperazin-1-yl)-1,3-benzoxazole-4-carboxamide], for which the IC50 with SMN2 mRNA, with HTT mRNA [1], with Target C mRNA, in the test on MYB mRNA (setting [4]), with MYB mRNA (setting [5]) and in the test on HTT mRNA [2] was greater than 10000 nM in each case. The AC50 with HTT mRNA [1] and in the test on MYB mRNA (setting [3]) was greater than 10000 nM in each case.
Consider `Cn1cc2c(N3CCNCC3)ccc(C(=O)Nc3cc(F)c4nc(CO)cn4c3)c2n1` [Compound 389, N-[8-fluoro-2-(hydroxymethyl)imidazo[1,2-a]pyridin-6-yl]-2-methyl-4-(piperazin-1-yl) indazole-7-carboxamide; trifluoroacetic acid], for which the IC50 is less than 100 nM in the test with SMN2 mRNA; greater than 10000 nM in the test on HTT mRNA [1]; greater than 10000 nM in the test with Target C mRNA; 100 to 1000 nM in the test on MYB mRNA (setting [4]); 100 to 1000 nM with MYB mRNA (setting [5]); greater than 10000 nM in the test with HTT mRNA [2]. Further, the results for the AC50 in the test with HTT mRNA [1] and with MYB mRNA (setting [3]) were greater than 10000 nM and 1000 to 10000 nM, respectively.
Regarding `CCn1cc2c(N3CC[C@@H](N(C)C)C3)ccc(C(=O)Nc3cc(F)c4nc(C)cn4c3)c2n1` [Compound 407, (R)-4-(3-(dimethylamino)pyrrolidin-1-yl)-2-ethyl-N-(8-fluoro-2-methylimidazo[1,2-a]pyridin-6-yl)-2H-indazole-7-carboxamide], the IC50 was less than 100 nM in the test with SMN2 mRNA; greater than 10000 nM with HTT mRNA [1]; greater than 10000 nM in the test on Target C mRNA; 100 to 1000 nM in the test with MYB mRNA (setting [4]); 100 to 1000 nM in the test on MYB mRNA (setting [5]); greater than 10000 nM in the test on HTT mRNA [2]. For the same molecule, the AC50 was greater than 10000 nM in the test on HTT mRNA [1] and 100 to 1000 nM in the test on MYB mRNA (setting [3]).
As for `CCn1cc2c(N3CC[C@H](N(C)C)C3)ccc(C(=O)Nc3cc(F)c4nc(C)cn4c3)c2n1` [Compound 408, (S)-4-(3-(dimethylamino)pyrrolidin-1-yl)-2-ethyl-N-(8-fluoro-2-methylimidazo[1,2-a]pyridin-6-yl)-2H-indazole-7-carboxamide], the IC50 with SMN2 mRNA was less than 100 nM; with HTT mRNA [1] it was greater than 10000 nM; with Target C mRNA it was greater than 10000 nM; with MYB mRNA (setting [4]) it was 100 to 1000 nM; with MYB mRNA (setting [5]), 100 to 1000 nM; in the test with HTT mRNA [2], greater than 10000 nM. The AC50 with HTT mRNA [1] is greater than 10000 nM; in the test on MYB mRNA (setting [3]), 100 to 1000 nM.
Consider `CCn1cc2c(N3CC[C@@H](NC4CC4)C3)ccc(C(=O)Nc3cc(F)c4nc(C)cn4c3)c2n1` [Compound 409, (R)-4-(3-(cyclopropylamino)pyrrolidin-1-yl)-2-ethyl-N-(8-fluoro-2-methylimidazo[1,2-a]pyridin-6-yl)-2H-indazole-7-carboxamide], for which the IC50 in the test with SMN2 mRNA was less than 100 nM; in the test on HTT mRNA [1], greater than 10000 nM; with Target C mRNA it was greater than 10000 nM; in the test on MYB mRNA (setting [4]), 100 to 1000 nM; in the test with MYB mRNA (setting [5]) it was 100 to 1000 nM; in the test on HTT mRNA [2], greater than 10000 nM. For the same molecule, the AC50 with HTT mRNA [1] was greater than 10000 nM; with MYB mRNA (setting [3]) it was less than 100 nM.
